Measurements published in the Deep4Chem optical property database.
Where “and” joins values, the source holds several entries; their conditions need not be identical. Equal entries are not always repeated.

Assay: photoluminescence quantum yield (fraction); solvent given as SMILES

Brc1ccc(-c2pc3ccccc3s2)cc1 (stereo unspecified)
photoluminescence quantum yield (in CC#N): 0.032

F[B-]1(F)OC(c2cc3c4c(c2)CCCN4CCC3)=Cc2cccc[n+]21
photoluminescence quantum yield (in ClC(Cl)Cl): 0.57

CN(C)c1ccc(/C=C/c2ccc(-c3cc(-c4ccccn4)nc(-c4ccccn4)c3)cc2)cc1
photoluminescence quantum yield (in C1CCOC1): 0.54 | photoluminescence quantum yield (in C1COCCO1): 0.48 | photoluminescence quantum yield (in CC#N): 0.41 | photoluminescence quantum yield (in CCO): 0.24 | photoluminescence quantum yield (in ClCCl): 0.62

c1ccc(-n2nc(-c3ccc(N4c5ccccc5Sc5ccccc54)cc3)nc2-c2ccccn2)cc1
photoluminescence quantum yield (in ClCCl): 0.0562

O=C(O)c1c2ccccc2c(C(=O)O)c2ccccc12
photoluminescence quantum yield (in C1CCOC1): 0.66 | photoluminescence quantum yield (in CN(C)C=O): 0.4

CCOC(=O)c1cc(C(=O)OCC)c2cccc(OCc3ccccc3)c2n1
photoluminescence quantum yield (in CCO): 0.2

CCCCc1ccc(-n2c3c4cc(F)ccc4nc(-c4ccc(OC)cc4)c3c3c2c2c(-c4ccc(OC)cc4)nc4ccc(F)cc4c2n3-c2ccc(CCCC)cc2)cc1
photoluminescence quantum yield (in ClC(Cl)Cl): 0.19

COC(=O)c1[nH]c(-c2ccccc2)c2nnc3ccsc3c12
photoluminescence quantum yield (in ClCCl): 0.111

CCCCCOc1cc2oc(=O)c3c4ccc(N)cc4c4ccc5cccc6c(c1)c2c3c4c56
photoluminescence quantum yield (in C1CCOC1): 0.486

O=Cc1c(O)c(-c2nc3ccccc3s2)cc2ccccc12
photoluminescence quantum yield (in C1CCOC1): 0.066 | photoluminescence quantum yield (in CC#N): 0.052 | photoluminescence quantum yield (in CC(C)=O): 0.053 | photoluminescence quantum yield (in CCO): 0.07 | photoluminescence quantum yield (in CCOC(C)=O): 0.068 | photoluminescence quantum yield (in CN(C)C=O): 0.077 | photoluminescence quantum yield (in CO): 0.061 | photoluminescence quantum yield (in Cc1ccccc1): 0.068 | photoluminescence quantum yield (in ClC(Cl)Cl): 0.065 | photoluminescence quantum yield (in ClCCl): 0.109

COc1ccc(-c2cc3c(ccc(=O)n3C)s2)cc1
photoluminescence quantum yield (in CC#N): 0.42 | photoluminescence quantum yield (in ClCCl): 0.83

COc1ccc(C2=C3C(C)=CC(C=Cc4ccc(C(=O)OC5C[C@H]6CCC5(C)C6(C)C)cc4)=[N+]3[B-](F)(F)n3c(C)cc(C)c32)cc1 (stereo partly specified)
photoluminescence quantum yield (in Cc1ccccc1): 0.41

COc1ccccc1C1=NC2c3cccc4cccc(c34)C2N1c1ccccc1 (stereo unspecified)
photoluminescence quantum yield (in Cc1ccccc1): 0.01

Cc1c2c(c(C)c3ccccc13)C1=C2C=CC2Nc3ccccc3NC12 (stereo unspecified)
photoluminescence quantum yield (in ClC(Cl)Cl): 0.74

CC1=[N+]2C(=C(NC(C)c3ccccc3)c3ccc(C)n3[B-]2(F)F)C=C1c1cc2n(c1)[B-](F)(F)[N+]1=CC=CC1=C2c1c(C)cc(C)cc1C (stereo unspecified)
photoluminescence quantum yield (in C1CCCCC1): 0.31 | photoluminescence quantum yield (in CCOC(C)=O): 0.05

CCCCC1(c2ccc(OC)cc2)Nc2ccccc2N=C1c1ccc(OC)cc1 (stereo unspecified)
photoluminescence quantum yield (in ClC(Cl)Cl): 0.52

Clc1cnc2nn3ccccc3c2n1
photoluminescence quantum yield (in C1CCOC1): 0.38

COc1ccc(-c2csc(/C(C#N)=C/c3c(Cl)cccc3Cl)n2)cc1
photoluminescence quantum yield (in CC#N): 0.038

C[Si](C)(C)c1ccc2ccc3cccc4ccc1c2c34
photoluminescence quantum yield (in CCCCCC): 0.23 | photoluminescence quantum yield (in CO): 0.22 | photoluminescence quantum yield (in ClCCl): 0.36

O=C([O-])c1ccccc1-c1c2cc(Br)c(=O)c(Br)c-2oc2c(Br)c([O-])c(Br)cc12
photoluminescence quantum yield (in CC(C)O): 0.76 | photoluminescence quantum yield (in CCO): 0.69 | photoluminescence quantum yield (in CO): 0.6 | photoluminescence quantum yield (in O): 0.2

CC(C)C[Si](C#Cc1c2c(=O)c3ccccc3c2c(C#C[Si](CC(C)C)(CC(C)C)CC(C)C)c2c(=O)c3ccccc3c12)(CC(C)C)CC(C)C
photoluminescence quantum yield (in ClC(Cl)Cl): 0.1

CC(=O)OCCN1C(=O)c2cccc3c(Oc4ccc(C#N)cc4)ccc(c23)C1=O
photoluminescence quantum yield (in ClC(Cl)Cl): 0.37

F[B-]1(F)n2c(-c3ccccc3)cc(-c3ccccc3)c2N=C2C(c3ccccc3)=CC(c3ccccc3)=[N+]21
photoluminescence quantum yield (in CC#N): 0.22 | photoluminescence quantum yield (in ClC(Cl)Cl): 0.34

F[B-]1(F)n2c(-c3cccs3)cc(-c3cccs3)c2N=C2C(c3cccs3)=CC(c3cccs3)=[N+]21
photoluminescence quantum yield (in C1CCOC1): 0.12 | photoluminescence quantum yield (in CC#N): 0.11 | photoluminescence quantum yield (in CS(C)=O): 0.13 | photoluminescence quantum yield (in Cc1ccccc1): 0.1 | photoluminescence quantum yield (in ClCCl): 0.12 and 0.11

CC1(C)c2ccccc2N(c2ccc3c(c2)S(=O)(=O)c2cc(N4c5ccccc5C(C)(C)c5ccccc54)ccc2C3(C)C)c2ccccc21
photoluminescence quantum yield (in O=P(c1ccccc1)(c1ccccc1)c1ccccc1Oc1ccccc1P(=O)(c1ccccc1)c1ccccc1): 0.62

CCN(CC)c1ccc2c(c1)oc(=O)c1c(=O)oc3c(C)c4oc(=O)c5c(=O)oc6cc(N(CC)CC)ccc6c5c4cc3c12
photoluminescence quantum yield (in CS(C)=O): 0.002 | photoluminescence quantum yield (in ClCCl): 0.67

COc1ccc(-c2nc3c([nH]2)C2=CC(=O)S[C@]2(C)[C@@]2(C)SC(=O)C=C32)cc1
photoluminescence quantum yield (in CC#N): 0.17

O=C([O-])c1ccc(C2=c3cc4c5c(c3Oc3c2cc2c6c3CCCN6CCC2)CCC[N+]=5CCC4)c(C(=O)[O-])c1
photoluminescence quantum yield (in CCO): 0.79 | photoluminescence quantum yield (in O): 0.6
